In patent US10428026B2, “Pyridinone dicarboxamide for use as bromodomain inhibitors” (GlaxoSmithKline Intellectual Property (No.2) Limited, priority 2015, dated 2019):

target: T1, BRD4 BD2 (Homo sapiens, UniProt O60885, Y97A); assay: BRD4 BD2 TR-FRET competition assay; assay type: binding; conditions: BRD4 BD2 TR-FRET; read-out: pIC50 in the BRD4 BD2 assay (converted)
T1 construct: BRD4 (1-477) (Y97A) and (Y390A); made in house; host or cells: E. coli (pET15b vector)

IC50, 1 to 100 µM:
CNC(=O)c1cc(C(=O)N[C@@H]2CCCC[C@H]2O)cn(Cc2ccccc2)c1=O (racemic) [Example 185, (+/−)-1-Benzyl-N5-((trans)-2-hydroxycyclohexyl)-N3-methyl-2-oxo-1,2-dihydropyridine-3,5-dicarboxamide]
CNC(=O)c1cc(C(=O)N[C@@H]2CCCC[C@@H]2O)cn(Cc2ccccc2)c1=O (racemic) [Example 186, (+/−)-1-Benzyl-N5-((cis)-2-hydroxycyclohexyl)-N3-methyl-2-oxo-1,2-dihydropyridine-3,5-dicarboxamide]
CNC(=O)c1cc(C(=O)NC[C@H]2CCC[C@@H]2O)cn(Cc2ccccc2)c1=O (racemic) [Example 196, (+/−)-1-Benzyl-N5-(((1R,2S)-2-hydroxycyclopentyl)methyl)-N3-methyl-2-oxo-1,2-dihydropyridine-3,5-dicarboxamide]
CNC(=O)c1cc(C(=O)NC[C@@H]2CC[C@@H](O)C2)cn(Cc2ccccc2)c1=O (racemic) [Example 198, (+/−)-1-Benzyl-N5-(((trans)-3-hydroxycyclopentyl)methyl) N3-methyl-2-oxo-1,2-dihydropyridine-3,5-dicarboxamide]
CNC(=O)c1cc(C(=O)NC[C@@H]2CC[C@H](O)C2)cn(Cc2ccccc2)c1=O (racemic) [Example 199, (+/−)-1-Benzyl-N5-(((cis)-3-hydroxycyclopentyl)methyl)-N3-methyl-2-oxo-1,2-dihydropyridine-3,5-dicarboxamide]
CNC(=O)c1cc(C(=O)NC[C@@H]2CCC[C@H](O)C2)cn(Cc2ccccc2)c1=O (racemic) [Example 206, (+/−)-1-Benzyl-N5-(((1R,3S)-3-hydroxycyclohexyl)methyl)-N3-methyl-2-oxo-1,2-dihydropyridine-3,5-dicarboxamide]
CCO[C@H]1C[C@H]1NC(=O)c1cc(C(=O)NC)c(=O)n(Cc2cccc(F)c2)c1 (racemic) [Example 208, (+/−)-N5-((cis)-2-ethoxycyclopropyl)-1-(3-fluorobenzyl)-N3-methyl-2-oxo-1,2-dihydropyridine-3,5-dicarboxamide]
CCO[C@H]1C[C@H]1NC(=O)c1cc(C(=O)NC)c(=O)n(Cc2cccc(C)c2)c1 (racemic) [Example 222, (+/−)-N5-((cis)-2-ethoxycyclopropyl)-N3-methyl-1-(3-methylbenzyl)-2-oxo-1,2-dihydropyridine-3,5-dicarboxamide]
CNC(=O)c1cc(C(=O)N[C@@H]2CC[C@H]2OC)cn(Cc2ccccc2)c1=O (racemic) [Example 243, (+/−)-1-Benzyl-N5-((trans)-2-methoxycyclobutyl)-N3-methyl-2-oxo-1,2-dihydropyridine-3,5-dicarboxamide]
CNC(=O)c1cc(C(=O)NC2CC2)cn(CC2CCCc3[nH]cnc32)c1=O (racemic) [Example 250, (+/−)-N5-Cyclopropyl-N3-methyl-2-oxo-1-((4,5,6,7-tetrahydro-1H-benzo[d]imidazol-4-yl)methyl)-1,2-dihydropyridine-3,5-dicarboxamide]
CNC(=O)c1cc(C(=O)N[C@@H]2C[C@H]2CO)cn(C(C)c2cccc(C)c2)c1=O (mixture of isomers) [Example 267, N5-((trans)-2-(Hydroxymethyl)cyclopropyl)-N3-methyl-2-oxo-1-((S*)-1-(m-tolyl)ethyl)-1,2-dihydropyridine-3,5-dicarboxamide]
CNC(=O)c1cc(C(=O)N[C@@H]2CCC[C@@H](O)C2)cn(Cc2ccccc2)c1=O (relative stereo) [Example 217, 1-Benzyl-N5-((1R*,3R*)-3-hydroxycyclohexyl)-N3-methyl-2-oxo-1,2-dihydropyridine-3,5-dicarboxamide]
CNC(=O)c1cc(C(=O)NC2CC2)cn(C(C)c2cccc(C)c2)c1=O (single isomer, unassigned) [Example 211, (S*)-N5-Cyclopropyl-N3-methyl-2-oxo-1-(1-(m-tolyl)ethyl)-1,2-dihydropyridine-3,5-dicarboxamide]
CNC(=O)c1cc(C(=O)NC2CC2)cn(C(C)c2ccccc2C)c1=O (single isomer, unassigned) [Example 213, (R*)-N5-Cyclopropyl-N3-methyl-2-oxo-1-(1-(o-tolyl)ethyl)-1,2-dihydropyridine-3,5-dicarboxamide]
CNC(=O)c1cc(C(=O)NC2CC2(C)C)cn(Cc2ccccc2)c1=O (single isomer, unassigned) [Example 248, (R*)-1-Benzyl-N5-(2,2-dimethylcyclopropyl)-N3-methyl-2-oxo-1,2-dihydropyridine-3,5-dicarboxamide]
CNC(=O)c1cc(C(=O)NC2CC2)cn(C(CO)c2ccccc2)c1=O (single isomer, unassigned) [Example 324, (R*)—N^5-Cyclopropyl-1-(2-hydroxy-1-phenylethyl)-N^3-methyl-2-oxo-1,2-dihydropyridine-3,5-dicarboxamide]
CNC(=O)c1cc(C(=O)NC2CCC2)cn(Cc2cnn(C)c2)c1=O [Example 163, N5-Cyclobutyl-N3-methyl-1-((1-methyl-1H-pyrazol-4-yl)methyl)-2-oxo-1,2-dihydropyridine-3,5-dicarboxamide]
CNC(=O)c1cc(C(=O)NC2CCC2c2ccccc2)cn(Cc2ccccc2)c1=O (stereo not drawn) [Example 168, 1-Benzyl-N3-methyl-2-oxo-N5-(2-phenylcyclobutyl)-1,2-dihydropyridine-3,5-dicarboxamide]
CNC(=O)c1cc(C(=O)N[C@H]2C[C@@H](C(=O)O)C2)cn(Cc2ccccc2)c1=O [Example 169, (cis)-3-(1-Benzyl-5-(methylcarbamoyl)-6-oxo-1,6-dihydropyridine-3-carboxamido)cyclobutane-carboxylic acid]
CNC(=O)c1cc(C(=O)NC2CCC2)cn([C@@H](C)c2ccccc2)c1=O [Example 171, (S)-N5-Cyclobutyl-N3-methyl-2-oxo-1-(1-phenylethyl)-1,2-dihydropyridine-3,5-dicarboxamide]
CNC(=O)c1cc(C(=O)NC2(CC(C)C)CC2)cn(Cc2ccccc2)c1=O [Example 173, 1-Benzyl-N5-(1-isobutylcyclopropyl)-N3-methyl-2-oxo-1,2-dihydropyridine-3,5-dicarboxamide]
CCOC1CC(NC(=O)c2cc(C(=O)NC)c(=O)n(Cc3ccccc3)c2)C1OC (stereo not drawn) [Example 177, 1-Benzyl-N5-(3-ethoxy-2-methoxycyclobutyl)-N3-methyl-2-oxo-1,2-dihydropyridine-3,5-dicarboxamide]
CCCC1(NC(=O)c2cc(C(=O)NC)c(=O)n(Cc3ccccc3)c2)CC1 [Example 178, 1-Benzyl-N3-methyl-2-oxo-N5-(1-propylcyclopropyl)-1,2-dihydropyridine-3,5-dicarboxamide]
CNC(=O)c1cc(C(=O)NC2CCC2)cn(Cc2ccc(C(=O)OC)cc2)c1=O [Example 180, Methyl 4-((5-(cyclobutylcarbamoyl)-3-(methylcarbamoyl)-2-oxopyridin-1(2H)-yl)methyl)benzoate]
CNC(=O)c1cc(C(=O)NC2CC2)cn(CCCc2ccccc2)c1=O [Example 190, N5-Cyclopropyl-N3-methyl-2-oxo-1-(3-phenylpropyl)-1,2-dihydropyridine-3,5-dicarboxamide]
CNC(=O)c1cc(C(=O)NCC2CCCCC2O)cn(Cc2ccccc2)c1=O (stereo not drawn) [Example 194, 1-Benzyl-N5-((2-hydroxycyclohexyl)methyl)-N3-methyl-2-oxo-1,2-dihydropyridine-3,5-dicarboxamide]
CNC(=O)c1cc(C(=O)NC[C@H]2CC[C@H](O)CC2)cn(Cc2ccccc2)c1=O [Example 200, 1-Benzyl-N5-(((trans)-4-hydroxycyclohexyl)methyl)-N3-methyl-2-oxo-1,2-dihydropyridine-3,5-dicarboxamide]
CNC(=O)c1cc(C(=O)NC[C@H]2CC[C@@H](O)CC2)cn(Cc2ccccc2)c1=O [Example 201, 1-Benzyl-N5-(((cis)-4-hydroxycyclohexyl)methyl)-N3-methyl-2-oxo-1,2-dihydropyridine-3,5-dicarboxamide]
CNC(=O)c1cc(C(=O)NC2CC2CO)cn(Cc2cccc(C)c2F)c1=O (stereo not drawn) [Example 214, 1-(2-Fluoro-3-methylbenzyl)-N5-(2-(hydroxymethyl)cyclopropyl)-N3-methyl-2-oxo-1,2-dihydropyridine-3,5-dicarboxamide]
CNC(=O)c1cc(C(=O)N[C@@H]2CCC[C@H](O)C2)cn(Cc2ccccc2)c1=O [Example 219, 1-Benzyl-N5-((1R,3S)-3-hydroxycyclohexyl)-N3-methyl-2-oxo-1,2-dihydropyridine-3,5-dicarboxamide]
CNC(=O)c1cc(C(=O)NC2CC2)cn(CC2COc3ccccc32)c1=O (stereo not drawn) [Example 268, N5-Cyclopropyl-1-((2,3-dihydrobenzofuran-3-yl)methyl)-N3-methyl-2-oxo-1,2-dihydropyridine-3,5-dicarboxamide]
CNC(=O)c1cc(C(=O)N[C@H]2C[C@@H]2C)cn(Cc2cc(OC)ccn2)c1=O [Example 334, 1-((4-Methoxypyridin-2-yl)methyl)-N^3-methyl-N^5-((1S,2S)-2-methylcyclopropyl)-2-oxo-1,2-dihydropyridine-3,5-dicarboxamide]
CNC(=O)c1cc(C(=O)N[C@H]2C[C@@H]2C)cn(Cc2cc(C)ccn2)c1=O [Example 335, N^3-Methyl-N^5-((1S,2S)-2-methylcyclopropyl)-1-((4-methylpyridin-2-yl)methyl)-2-oxo-1,2-dihydropyridine-3,5-dicarboxamide]
